Patent US20210147811A1, “METHODS FOR IN VITRO EXPANSION OF ADULT TISSUE STEM CELLS” (CEDARS-SINAI MEDICAL CENTER, priority 2018, published 2021)
“Also recorded” adds a separate entry of the source.

What was measured:
[1] = system: freshly isolated murine distal total epithelial cells; experiment: 3D organoid culture of freshly isolated murine distal total epithelial cells; assay type: cell-based; settings: for % colony forming efficiency: freshly isolated murine lung epithelial cells, addition to the culture medium (FIG. 3)
Source text: (§1) FIG. 1. Experimental design. Preconditioning of donor cells, including addition of small molecules such as ROCK inhibitor, pifithrin α, or combined together, and generation of organoids.
FIG. 3. […] Addition of the TGF-β inhibitor, SB 431542 to the culture medium increases the % colony forming efficiency of freshly isolated murine lung epithelial cells. Addition of Pifithrin α causes an increase in organoids size, while addition of ROCKi causes an increase in the colony forming efficiency.
FIG. 13. Effect of p53 and ROCKi inhibition on murine freshly isolated distal total epithelial cells in (+SB431542). Addition of both ROCKi and Pifithrin alpha (in presence of SB431542) increases the colony forming efficiency of freshly isolated murine distal total epithelial cells (isolated from the lung without trachea). […] Pifithrin alpha also causes an increase in the size of the organoids (C). […] The drop in mean diameter of the Pifithrin alpha+ROCKi group is likely due to space constraints because of the large number of organoids per well.
Further described herein is a cell culture including a quantity of human stem cells, or stem cell derived cells in a cell culture media including at least one molecule including: a RHO-kinase (ROCK) inhibitor, SMAD inhibitor, and p53 inhibitor. In other embodiments, the RHO-kinase inhibitor is Y27632 and the p53 inhibitor is Pifithrin α. In other embodiments, the stem cells are adult stem cells. In other embodiments, the stem cell derived cells are lung epithelial cells. In various embodiments, the aforementioned inhibitors are at a concentration of 0.1-1 uM, 1-5 uM, 5-10 uM, 10-25 uM, 25-50 uM, or 50 uM or more. In various embodiments, the p53 inhibitor is Pifithrin-alpha. For example, this includes a media formulated as follows: 5 mL FBS, 500 uL ITS (100×), 50 uL Fungizone, 500 uL Pen/Strep (100×), DMEM/F12 up to 50 mL, 5 uL SB431542, Pifithrin-alpha 10 uM, ROCKi (Y-27632 dihydrochloride)—10 uM. Also described herein is a quantity of organoids including cells made by the aforementioned methods. In various embodiments, the organoids include proximal and/or distal cells. In various embodiments, the distal cells are alveolar type II progenitors and/or Scgb1a1 positive club progenitor cells.

[2] = system: murine pre-cultured distal total epithelial cells; experiment: 3D organoid culture of murine distal total epithelial cells pre-cultured 24 hrs on collagen coated plates; assay type: cell-based; settings: pre-cultured on collagen coated plates for 24 hrs after isolation, +SB431542; dihydrochloride
Source text: FIG. 4. Effect of pre-culturing—Day 3. Pre-culturing cells on collagen coated plates for 24 hrs after initial isolation increases the rate of organoid formation, with organoids being visible as early as day 3 in culture.
FIG. 5. Effect of pre-culturing—Day 8. Addition of Pifithrin α causes an increase in organoids size, while addition of ROCKi causes an increase in the colony forming efficiency. This effect is more pronounced when cells are pre-cultured for 24 hrs on collagen coated plates after initial isolation.
FIG. 14. Effect of inhibitors on murine pre-cultured distal total epithelial cells in (+SB431542). Addition Pifithrin alpha increases organoid size while addition of ROCKi increases the colony forming efficiency when murine distal total epithelial cells (isolated from the lung without trachea) are pre-cultured on collagen coated plates for 24 hrs prior after initial isolation. The effect on size is more pronounced when cells are precultured for 24 hrs on collagen coated plates after initial isolation. The drop in CFE in the Pifithrin alpha+ROCKi group is likely due space and nutrient availability constraints due to the large number of organoids per well.
(§2) ROCKi increases the colony forming efficiency when murine distal total epithelial cells (isolated from the lung without trachea) are pre-cultured on collagen coated plates for 24 hrs prior after initial isolation. The effect on size is more pronounced when cells are precultured for 24 hrs on collagen coated plates after initial isolation. The drop in CFE in the Pifithrin alpha+ROCKi group is likely due space and nutrient availability constraints due to the large number of organoids per well. Addition of both ROCKi and Pifithrin alpha (in presence of SB431542) increases the colony forming efficiency of freshly isolated alveolar type II cells (regional stem cells which maintain the epithelium of the air sacs in the lung). The effect is synergistic for their combined use, similar to that seen for total distal epithelial cells in the previous figures.

[3] = system: freshly isolated alveolar type II cells; experiment: Organoid culture of lineage labelled murine alveolar type II cells; assay type: cell-based; settings: GFP+ alveolar type II cells, in presence of SB431542
Source text: FIG. 15. Effect of ROCK and P53 inhibition on lineage labelled murine alveolar type II cells. GFP^+ alveolar type II cells were isolated from tamoxifen treated SPC-CreER/ROSARG mice. Addition of both ROCKi and Pifithrin alpha (in presence of SB431542) increases the colony forming efficiency of freshly isolated alveolar typeII cells (regional stem cells which maintain the epithelium of the air sacs in the lung). The effect is synergistic for their combined use, similar to that seen for total distal epithelial cells in the previous figures.
as §2

[4] = system: freshly isolated club cells; experiment: Organoid culture of lineage labelled murine club cells; assay type: cell-based; settings: GFP+ club cells, in presence of SB431542
Source text: FIG. 17. Effect of ROCK and P53 inhibition on lineage labelled murine club cells. GFP^+ club cells were isolated from tamoxifen treated Scgb1a1-CreER/ROSARG mice. Addition of ROCKi (in presence of SB431542) increases the colony forming efficiency of freshly isolated club cells (regional stem cells which maintain certain cell types in the bronchiolar epithelium) whereas addition of Pifithrin alpha (in presence of SB431542) increases the size of Scgb1a1-derived organoids.
(§3) Distal progenitor cells were cultured as 3D organoids for 14 days in presence of Pifithrin-alpha, ROCKi and SB431542 followed by culture for 7 days in media without all three inhibitors. […] Addition of ROCKi (in presence of SB431542) increases the colony forming efficiency of freshly isolated club cells (regional stem cells which maintain certain cell types in the bronchiolar epithelium) whereas addition of Pifithrin alpha (in presence of SB431542) increases the size of Scgb1a1-derived organoids. Addition of both ROCKi (in presence of SB431542) increases the colony forming efficiency of freshly isolated murine proximal total epithelial cells (isolated from the murine trachea).

[5] = system: freshly isolated murine proximal total epithelial cells; experiment: Organoid culture of murine tracheal progenitor (basal) cells; assay type: cell-based
Description: FIG. 18. Effect of ROCK and P53 inhibition on murine tracheal progenitor (basal) cells. Addition of both ROCKi (in presence of SB431542) increases the colony forming efficiency of freshly isolated murine proximal total epithelial cells (isolated from the murine trachea).
as §3

distal progenitor cells = experiment: Differentiation potential of distal progenitors after 3D organoid culture with inhibitors; assay type: cell-based; settings: 14 days with Pifithrin-alpha, ROCKi and SB431542, then 7 days without inhibitors, PDPN and SPC staining
Description: FIG. 16. […] Distal progenitor cells were cultured as 3D organoids for 14 days in presence of Pifithrin-alpha, ROCKi and SB431542 followed by culture for 7 days in media without all three inhibitors. […] DAPI (blue) is a nuclear stain.
as §3

freshly isolated cells = experiment: Freshly isolated cells cultured with small molecules at different time points (proliferation); assay type: cell-based; settings: different time points (FIG. 2)
Source text: as §1
FIG. 2. Freshly isolated cells cultured with small molecules at different time points.

[6] = system: human bronchial epithelial stem cells; settings: inhibition of ROCK1 and 2; cited from earlier work
airway epithelial cells = experiment: In vitro clonogenic potential and colony-forming ability with Rho kinase inhibitor HA1077; assay type: cell-based; settings: FIG. 11
Source text: FIG. 11. […] P53 and ROCK regulate epithelial colony-forming ability and “stemness”. Tp53 (p53) is a tumor suppressor that is one of the most commonly mutated genes in cancer. In addition to its classical functions of regulating cell fate following cellular stress, p53 regulates migration, autophagy, metabolism, and tumor microenvironment signaling. p53 regulates self-renewal and terminal differentiation of both neural and mammary stem cells in vitro, and of hematopoietic and kidney stem/progenitor cells in vivo. In the Inventors' previous work the Inventors have shown that loss of p53 function promotes stem cell renewal in vivo and leads to a dramatic increase in colony-forming epithelial progenitor cells in vitro. The impact of p53 loss-of-function on airway epithelial in vitro colony-forming ability can be phenocopied by pharmacologic inhibition of Rho kinase (ROCK). Experiments proposed in the Inventors' application will use transient pharmacologic modulation of ROCK and p53 as tools to enhance survival and “sternness” of transplanted epithelial cells and overcome the need for co-transplanted structural lung cells for their efficient engraftment.

[7] = system: Scgb1a1 immunoreactive cells; experiment: Club cell ablation by gancyclovir in Scgb1a1-HSVtk transgenic mice; assay type: in vivo; settings: 12.5 mg total delivered dose through miniosmotic pump, 7 days post-treatment
Description: FIG. 9. Orthotopic cell transplantation. Scgb1a1-HSVtk transgenic mice were exposed to gancyclovir delivered through miniosmotic pump and club cell ablation monitored by immunofluorescence. A dose of 12.5 mg gancyclovir (total delivered dose) led to >90% loss of Scgb1a1 immunoreactive cells 7 days post-treatment (red immunofluorescence in panel A). Total lung cells were isolated from ROSA-GFP mice and 1×10^6 cells transplanted into lungs of gancyclovir-treated mice that received i.t. chlodronate-containing liposomes for depletion of macrophages. Transplanted cells are shown in green in B and C, with cell type-specific markers shown by red immunofluorescence in C. Transplantation of 1×10^6 ROSA-mT lung cells (total cells following depletion of CD45+ fraction) into recipient lung tissue pre-conditioned by 6 Gy X-Rays led to efficient engraftment as shown by light sheet microscopy 2 weeks post transplant (D). The Inventors' initial efforts to develop a protocol for functional engraftment of transplanted epithelial stem cells involved sequential ablation of club cells through delivery of gancyclovir to Scgb1a1-HSVtk trangenic mice followed by delivery of liposome encapsulated chlodronate to deplete macrophages (FIG. 9A-C). […] Difficulties with this model were lack of translatability and poor survival of recipient mice. […]

With `C[C@@H](N)[C@H]1CC[C@H](C(=O)Nc2ccncc2)CC1.Cl.Cl` [ROCKi, Y-27632 dihydrochloride] the colony forming efficiency ([1]; freshly isolated cells, in presence of SB431542 (FIG. 13)) was “increases”, the “survival and proliferation of the stem cells (inferred from CFE and organoid size)” value ([1]; freshly isolated distal cells, FIG. 13) was “increase survival” and the “% colony forming efficiency” value [1] was “increase”. For the same compound, the colony forming efficiency [2] was “increase”, the colony forming efficiency [3] was “increases” and the “size of the alveolar organoids” value [3] was “does not increase”. For the same compound, the colony forming efficiency [4] was “increases”, the colony forming efficiency ([5]; cells isolated from the murine trachea, in presence of SB431542) was “increases” and the “survival of proximal and distal progenitors (inferred from colony forming ability)” value ([5]; comparison of proximal and distal progenitor cell types, dihydrochloride) was “increase survival of both proximal and distal progenitors; also recorded: increases survival”. For the same compound, the differentiation potential (distal progenitor cells; dihydrochloride) was “did not alter; also recorded: do not alter”, the proliferation of cells (freshly isolated cells) was “have an effect on proliferation” and the “survival and expansion of human bronchial epithelial stem cells” value [6] was “promote survival and expansion”.

For `NC(=O)c1ccc(-c2nc(-c3ccc4c(c3)OCO4)c(-c3ccccn3)[nH]2)cc1` [SB 431542], the “% colony forming efficiency” value [1] was “increases” and the differentiation potential (distal progenitor cells) was “did not alter”.

For `O=S(=O)(c1cccc2cnccc12)N1CCCNCC1` [HA1077], the colony-forming ability (airway epithelial cells) was “without altering” and the “in vitro clonogenic potential” value (airway epithelial cells) was “increases”.

For `Nc1nc(O)c2ncn(COC(CO)CO)c2n1` [gancyclovir], the “loss of Scgb1a1 immunoreactive cells” value [7] was > 90%.
